From patent US20250205259A1, “CLASS OF 7-((FIVE-MEMBERED HETEROCYCLIC)METHYL)-8-CARBOXYLIC ACID-BENZO CYCLIC BORATE DERIVATIVES AND USES THEREOF” (priority 2022, published 2025)
Like-named read-outs stand apart in the source and are kept apart here.

Columns and labels:
VIM-1 = VIM-1 (Pseudomonas aeruginosa, UniProt A0A0F7KYQ8); experiment: Inhibitory activity on MBL, fluorescent substrate FC-5; assay type: biochemical
OXA-48 = OXA-48 (Klebsiella pneumoniae, UniProt Q6XEC0); experiment: Inhibitory activity on SBL, fluorescent substrate FC-5; assay type: biochemical; settings: for inhibitory activity on OXA-48 compared to avibactam: comparison in words
Sequence of OXA-48 (Q6XEC0 23-265 limits assumed): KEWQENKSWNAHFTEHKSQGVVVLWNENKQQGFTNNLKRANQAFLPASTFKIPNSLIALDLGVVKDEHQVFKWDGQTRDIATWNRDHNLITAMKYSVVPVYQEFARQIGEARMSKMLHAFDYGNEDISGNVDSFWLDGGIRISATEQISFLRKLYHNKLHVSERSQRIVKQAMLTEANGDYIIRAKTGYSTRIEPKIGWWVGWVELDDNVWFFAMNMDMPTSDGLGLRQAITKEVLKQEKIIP

[1] = tested on: Escherichia coli expressing IMP-1; experiment: Antibacterial activity in combination with meropenem (MIC), clinically isolated strains; assay type: cell-based; settings: clinical isolate EC1541 (blaIMP-1), compound final concentration 10 μM
VIM-2 = VIM-2 (Escherichia coli, UniProt Q5U7L7); experiment: Inhibitory activity on MBL, fluorescent substrate FC-5; assay type: biochemical
KPC-2 = KPC-2 (Klebsiella pneumoniae, UniProt Q9F663); experiment: Inhibitory activity on SBL, fluorescent substrate FC-5; assay type: biochemical; settings: for inhibitory activity on KPC-2 compared to avibactam: comparison in words
Sequence of KPC-2 (Q9F663 25-293 limits assumed): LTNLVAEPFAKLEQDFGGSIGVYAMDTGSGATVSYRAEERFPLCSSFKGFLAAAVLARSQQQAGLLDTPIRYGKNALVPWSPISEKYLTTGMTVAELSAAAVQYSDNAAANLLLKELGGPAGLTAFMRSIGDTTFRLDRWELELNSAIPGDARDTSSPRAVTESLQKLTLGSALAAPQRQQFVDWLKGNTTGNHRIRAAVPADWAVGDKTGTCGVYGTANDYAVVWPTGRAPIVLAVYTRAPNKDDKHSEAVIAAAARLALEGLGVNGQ

[2] = tested on: Klebsiella pneumoniae expressing KPC-2; experiment: Antibacterial activity in combination with meropenem (MIC), clinically isolated strains; settings: compound final concentration 10 μM
CTX-M-14 = CTX-M-14 (Escherichia coli, UniProt Q9L5C7); experiment: Inhibitory activity on SBL, fluorescent substrate FC-5; assay type: biochemical; settings: for inhibitory activity on CTX-M-14 compared to avibactam: comparison in words
Sequence of CTX-M-14 (Q9L5C7 entry or part of it): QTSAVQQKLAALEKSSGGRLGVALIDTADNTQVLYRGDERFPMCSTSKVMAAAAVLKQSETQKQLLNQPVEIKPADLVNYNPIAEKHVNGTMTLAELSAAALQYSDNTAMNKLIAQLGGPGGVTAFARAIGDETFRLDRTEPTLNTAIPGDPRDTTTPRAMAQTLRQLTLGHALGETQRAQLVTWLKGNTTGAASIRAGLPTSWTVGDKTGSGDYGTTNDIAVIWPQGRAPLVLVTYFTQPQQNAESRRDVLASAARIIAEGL

IMP-1 = IMP-1 (Serratia marcescens, UniProt P52699); experiment: Inhibitory activity on MBL, fluorescent substrate FC-5; assay type: biochemical
Sequence of IMP-1 (P52699 19-246 limits assumed): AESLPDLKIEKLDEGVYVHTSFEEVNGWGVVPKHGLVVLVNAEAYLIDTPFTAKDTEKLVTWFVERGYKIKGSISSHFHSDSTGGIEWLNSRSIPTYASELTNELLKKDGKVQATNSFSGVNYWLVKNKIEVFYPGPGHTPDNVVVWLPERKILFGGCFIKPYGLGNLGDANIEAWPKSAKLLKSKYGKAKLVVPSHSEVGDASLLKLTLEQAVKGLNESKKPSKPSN

SHV-12 = target: T1, SHV-12 (UniProt P0AD64, L31Q/G234S/E235K, species not given); experiment: Inhibitory activity on SBL, fluorescent substrate FC-5; assay type: biochemical; settings: for inhibitory activity on SHV-12 compared to control drugs: comparison in words
T1 sequence (P0AD64 1-286 L31Q/G234S/E235K): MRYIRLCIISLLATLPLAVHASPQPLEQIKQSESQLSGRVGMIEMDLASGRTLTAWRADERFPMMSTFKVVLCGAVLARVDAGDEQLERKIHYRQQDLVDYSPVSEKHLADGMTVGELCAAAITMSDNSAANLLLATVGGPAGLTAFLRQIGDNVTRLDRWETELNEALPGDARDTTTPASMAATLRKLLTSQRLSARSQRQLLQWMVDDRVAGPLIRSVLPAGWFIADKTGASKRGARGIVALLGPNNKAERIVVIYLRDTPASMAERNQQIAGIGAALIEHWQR

NDM-1 = NDM-1 (Klebsiella pneumoniae, UniProt C7C422); experiment: Inhibitory activity on MBL, fluorescent substrate FC-5; assay type: biochemical
Sequence of NDM-1 (C7C422 29-270 limits assumed): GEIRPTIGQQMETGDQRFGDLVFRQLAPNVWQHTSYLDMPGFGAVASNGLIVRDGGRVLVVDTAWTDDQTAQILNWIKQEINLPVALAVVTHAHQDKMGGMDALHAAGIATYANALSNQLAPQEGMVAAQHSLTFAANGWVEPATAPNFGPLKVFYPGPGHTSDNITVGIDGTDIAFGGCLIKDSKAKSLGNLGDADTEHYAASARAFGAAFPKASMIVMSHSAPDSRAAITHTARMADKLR

NDM-5 = NDM-5 (Klebsiella pneumoniae, UniProt C7C422, M154L/V88L); experiment: as above; assay type: biochemical
Sequence of NDM-5 (C7C422 29-270 V88L/M154L): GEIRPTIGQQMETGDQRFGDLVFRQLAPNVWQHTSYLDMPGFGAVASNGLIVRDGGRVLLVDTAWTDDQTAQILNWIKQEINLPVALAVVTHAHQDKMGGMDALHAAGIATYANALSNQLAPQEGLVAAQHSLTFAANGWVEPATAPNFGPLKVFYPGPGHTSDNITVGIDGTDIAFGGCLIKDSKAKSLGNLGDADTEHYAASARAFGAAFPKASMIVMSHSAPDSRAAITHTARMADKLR

AmpC = AmpC (UniProt P24735); experiment: Inhibitory activity on SBL, fluorescent substrate FC-5
TEM-1 = TEM-1 (Escherichia coli, UniProt P62593); experiment: as above; assay type: biochemical; settings: for inhibitory activity on TEM-1 compared to avibactam: comparison in words; for IC50: read-out: Inhibitory activity on SBL TEM-1 (IC50 class)
Sequence of TEM-1 (P62593 24-286 limits assumed): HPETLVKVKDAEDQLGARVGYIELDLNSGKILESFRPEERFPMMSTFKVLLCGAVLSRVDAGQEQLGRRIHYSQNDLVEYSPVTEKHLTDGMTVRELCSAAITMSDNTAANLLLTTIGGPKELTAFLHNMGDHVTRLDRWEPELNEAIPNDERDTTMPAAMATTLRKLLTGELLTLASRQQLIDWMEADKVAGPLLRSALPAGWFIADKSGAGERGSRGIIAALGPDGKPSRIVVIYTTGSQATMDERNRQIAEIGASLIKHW

[3] = read-out: Inhibitory activity on MBL VIM-1 (IC50 class)
[4] = read-out: Inhibitory activity on SBL OXA-48 (IC50 class)
[5] = read-out: Inhibitory activity on MBL VIM-2 (IC50 class)
[6] = read-out: Inhibitory activity on SBL KPC-2 (IC50 class)
[7] = read-out: Inhibitory activity on SBL CTX-M-14 (IC50 class)
[8] = read-out: Inhibitory activity on MBL IMP-1 (IC50 class)
[9] = read-out: Inhibitory activity on SBL SHV-12 (IC50 class)
[10] = read-out: Inhibitory activity on MBL NDM-1 (IC50 class)
[11] = read-out: Inhibitory activity on MBL NDM-5 (IC50 class)
[12] = read-out: Inhibitory activity on SBL AmpC (IC50 class)
[13] = VIM-1 and/or VIM-2, read-out: inhibitory activity at a nanomolar-level on VIM-1 and/or VIM-2
[14] = read-out: inhibitory activity at a nanomolar-level on NDM-1
[15] = read-out: inhibitory activity at a nanomolar-level on NDM-5

SMILES	IC50 (VIM-1; [3]) [µM]	IC50 (OXA-48; [4]) [µM]	IC50 (VIM-2; [5]) [µM]	IC50 (KPC-2; [6]) [µM]	IC50 (CTX-M-14; [7]) [µM]	IC50 (IMP-1; [8]) [µM]	IC50 (SHV-12; [9]) [µM]	IC50 (NDM-1; [10]) [µM]	IC50 (NDM-5; [11]) [µM]	IC50 (AmpC; [12]) [µM]	IC50 (VIM-1; [13]) [µM]	inhibitory activity on OXA-48 compared to avibactam (OXA-48)	inhibitory activity on KPC-2 compared to avibactam (KPC-2)	inhibitory activity on SHV-12 compared to control drugs (SHV-12)	inhibitory activity on CTX-M-14 compared to avibactam (CTX-M-14)	IC50 (NDM-1; [14]) [µM]	inhibitory activity on TEM-1 compared to avibactam (TEM-1)	IC50 (TEM-1) [µM]	IC50 (NDM-5; [15]) [µM]	also measured
NCCN[C@H]1CC[C@H](CC(=O)N[C@H]2Cc3cccc(C(=O)O)c3OB2O)CC1 [Taniborbactam, reference compound]	0.01 to 1	0.01 to 1	< 0.01	0.01 to 1	0.01 to 1	1 to 100														MIC value of compounds in combination with meropenem, EC1541 (blaIMP-1) [1]: ++++ (++++ indicates MIC < 4 μg/ml); MIC value of compounds in combination with meropenem, KP090344 (blaKPC-2) ([2]; clinical isolate KP090344 (blaKPC-2)): ++++ (++++ indicates MIC < 4 μg/ml); MIC value of compounds in combination with meropenem, KP140508 (blaKPC-2) ([2]; clinical isolate KP140508 (blaKPC-2)): ++++ (++++ indicates MIC < 4 μg/ml); MIC value of compounds in combination with meropenem, KP140912 (blaKPC-2) ([2]; clinical isolate KP140912 (blaKPC-2)): ++++ (++++ indicates MIC < 4 μg/ml)
O=C(O)c1c(CNc2nncs2)ccc2c1OB(O)CC2 [Comparative example 1 compound 64, reference compound]	1 to 100	0.01 to 1	1 to 100	0.01 to 1	0.01 to 1	> 100	1 to 100	1 to 100	1 to 100	1 to 100										IC50 (VIM-1; unit inferred, read-out: VIM-1, number in parentheses under the class symbol): 5.5 µM; IC50 (OXA-48; unit inferred, read-out: OXA-48, number in parentheses under the class symbol): 0.154 µM; IC50 (VIM-2; unit inferred, read-out: VIM-2, number in parentheses under the class symbol): 8.1 µM; IC50 (KPC-2; unit inferred, read-out: KPC-2, number in parentheses under the class symbol): 0.065 µM; IC50 (SHV-12; unit inferred, read-out: SHV-12, number in parentheses under the class symbol): 1.58 µM; IC50 (CTX-M-14; unit inferred, read-out: CTX-M-14, number in parentheses under the class symbol): 0.063 µM; IC50 (NDM-1): 3.23 µM; IC50 (IMP-1; unit inferred, read-out: IMP-1, number in parentheses under the class symbol): 103 µM; IC50 (NDM-5; unit inferred, read-out: NDM-5, number in parentheses under the class symbol): 3.23 µM; IC50 (AmpC; read-out: AmpC, number in parentheses under the class symbol, unit inferred): 7.5 µM
NC(=O)N1Cc2cn(Cc3ccc4c(c3C(=O)O)OB(O)CC4)nc2C1 [Compound 73]	0.01 to 1	0.01 to 1	0.01 to 1	< 0.01	0.01 to 1	0.01 to 1	< 0.01	0.01 to 1	0.01 to 1	0.01 to 1	< 1	better or comparable	better or comparable	comparable to avibactam and tazobactam and superior to taniborbactam	better or comparable	< 1	better or comparable	< 0.01	< 1	
CN1Cc2cn(Cc3ccc4c(c3C(=O)O)OB(O)CC4)nc2C1 [Compound 74]	0.01 to 1	0.01 to 1	0.01 to 1	< 0.01	0.01 to 1	0.01 to 1	< 0.01	0.01 to 1	0.01 to 1	0.01 to 1	< 1	better or comparable	better or comparable	comparable to avibactam and tazobactam and superior to taniborbactam	better or comparable	< 1	better or comparable	< 0.01	< 1	
